Data published in the NIST ThermoML archive (doi:10.1016/j.fluid.2014.09.031).
± gives the expanded uncertainty stated by the source.

Test: xn = mol fraction of the nth substance listed
Settings: 298.15 K, 101 kPa, Liquid, Vibrating tube method

## CC[NH3+].O=[N+]([O-])[O-] [ethylammonium nitrate] + CN1CCCC1=O
x1 = 0.049
  mass density: 1040.83 ± 0.16 kg/m3
x1 = 0.138
  mass density: 1059.94 ± 0.22 kg/m3
x1 = 0.166
  mass density: 1065.8 ± 0.25 kg/m3
x1 = 0.223
  mass density: 1076.59 ± 0.32 kg/m3
x1 = 0.242
  mass density: 1080.27 ± 0.35 kg/m3
x1 = 0.292
  mass density: 1089.23 ± 0.43 kg/m3
x1 = 0.347
  mass density: 1098.75 ± 0.52 kg/m3
x1 = 0.413
  mass density: 1109.61 ± 0.66 kg/m3
x1 = 0.457
  mass density: 1116.43 ± 0.75 kg/m3
x1 = 0.48
  mass density: 1119.62 ± 0.81 kg/m3
x1 = 0.54
  mass density: 1129.36 ± 0.96 kg/m3
x1 = 0.592
  mass density: 1137.95 ± 1.1 kg/m3
x1 = 0.63
  mass density: 1143.72 ± 1.2 kg/m3
x1 = 0.684
  mass density: 1153.22 ± 1.4 kg/m3
x1 = 0.763
  mass density: 1167.68 ± 1.7 kg/m3
x1 = 0.83
  mass density: 1179.62 ± 2 kg/m3
x1 = 0.915
  mass density: 1195.54 ± 2.4 kg/m3
x1 = 0.981
  mass density: 1207.67 ± 2.7 kg/m3
x1 = 1
  mass density: 1210.76 ± 2.8 kg/m3

## CN1CCCC1=O [N-methylpyrrolidone] + CCC[NH3+].O=[N+]([O-])[O-]
x2 = 0
  mass density: 1028.25 ± 0.13 kg/m3

## CN1CCCC1=O [N-methylpyrrolidone] + CC[NH3+].O=[N+]([O-])[O-]
x2 = 0
  mass density: 1028.25 ± 0.13 kg/m3

## CCC[NH3+].O=[N+]([O-])[O-] [propylammonium nitrate] + CN1CCCC1=O
x1 = 0.046
  mass density: 1038.38 ± 0.15 kg/m3
x1 = 0.167
  mass density: 1059.42 ± 0.24 kg/m3
x1 = 0.202
  mass density: 1064.53 ± 0.29 kg/m3
x1 = 0.263
  mass density: 1073.3 ± 0.37 kg/m3
x1 = 0.329
  mass density: 1081.53 ± 0.47 kg/m3
x1 = 0.406
  mass density: 1090.6 ± 0.61 kg/m3
x1 = 0.461
  mass density: 1096.52 ± 0.73 kg/m3
x1 = 0.551
  mass density: 1105.72 ± 0.94 kg/m3
x1 = 0.582
  mass density: 1108.68 ± 1 kg/m3
x1 = 0.628
  mass density: 1113.18 ± 1.1 kg/m3
x1 = 0.661
  mass density: 1116.42 ± 1.2 kg/m3
x1 = 0.721
  mass density: 1122.67 ± 1.4 kg/m3
x1 = 0.781
  mass density: 1128.74 ± 1.6 kg/m3
x1 = 0.808
  mass density: 1130.96 ± 1.7 kg/m3
x1 = 0.862
  mass density: 1136.73 ± 1.9 kg/m3

## CCCC[NH3+].O=[N+]([O-])[O-] [n-butylammonium nitrate] + CN1CCCC1=O
x1 = 0.048
  mass density: 1036.44 ± 0.15 kg/m3
x1 = 0.108
  mass density: 1044.94 ± 0.19 kg/m3
x1 = 0.163
  mass density: 1051.72 ± 0.24 kg/m3
x1 = 0.267
  mass density: 1062.31 ± 0.36 kg/m3
x1 = 0.365
  mass density: 1069.91 ± 0.51 kg/m3
x1 = 0.439
  mass density: 1074.93 ± 0.65 kg/m3
x1 = 0.538
  mass density: 1080.43 ± 0.86 kg/m3
x1 = 0.67
  mass density: 1088.06 ± 1.2 kg/m3
x1 = 0.843
  mass density: 1097.2 ± 1.7 kg/m3
x1 = 1
  mass density: 1105.49 ± 2.3 kg/m3

## CN1CCCC1=O [N-methylpyrrolidone] + CCCC[NH3+].O=[N+]([O-])[O-]
x2 = 0
  mass density: 1028.25 ± 0.13 kg/m3
